Test results as given in PMC6070649, “The solute transport and binding profile of a novel nucleobase cation symporter 2 from the honeybee pathogen Paenibacillus larvae” (FEBS Open Bio, 2018).

What was measured:
[1] = biological target: T1, PlUacP (P. larvae uric acid permease-like protein) (Paenibacillus larvae, UniProt V9VZQ8); test: competition with [3H]-adenine uptake in yeast; format: cell-based; settings: competitive; 1 μM [2,8-3H]-adenine, 1 mM unlabelled competitor, S. cerevisiae RG191, 5 min
T1 construct: gene pbuX
T1 sequence (V9VZQ8 1-434): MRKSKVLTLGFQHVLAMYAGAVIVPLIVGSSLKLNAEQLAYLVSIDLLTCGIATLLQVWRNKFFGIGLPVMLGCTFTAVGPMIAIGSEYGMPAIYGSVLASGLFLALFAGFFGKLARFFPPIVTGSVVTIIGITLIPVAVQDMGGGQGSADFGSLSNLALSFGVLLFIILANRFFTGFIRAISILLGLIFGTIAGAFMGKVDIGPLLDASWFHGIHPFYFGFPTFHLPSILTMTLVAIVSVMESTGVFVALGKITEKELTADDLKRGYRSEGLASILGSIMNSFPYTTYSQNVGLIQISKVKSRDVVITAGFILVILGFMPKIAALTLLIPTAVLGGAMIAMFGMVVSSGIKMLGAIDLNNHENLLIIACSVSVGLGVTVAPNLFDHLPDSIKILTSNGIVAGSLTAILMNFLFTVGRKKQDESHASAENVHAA

[2] = substrate: Nc1ncnc2nc[nH]c12; test: cells, lysate or membranes; settings: labelled compound [2,8-3H]-adenine 0.1-30 μM, S. cerevisiae RG191, 10 min, 100 mM citrate pH 3.5, 1% glucose, Lineweaver-Burk

With `O=c1[nH]cnc2nc[nH]c12` [hypoxanthine] the “% adenine uptake at 1 mM competitor” value [1] was “guanine, cytosine, hypoxanthine, xanthine, uric acid, and uracil all compete with adenine”.

In the case of `Nc1cc[nH]c(=O)n1` [cytosine], the “% adenine uptake at 1 mM competitor” value [1] is reported as “guanine, cytosine, hypoxanthine, xanthine, uric acid, and uracil all compete with adenine”.

For `O=c1[nH]c(=O)c2[nH]cnc2[nH]1` [xanthine], the “% adenine uptake at 1 mM competitor” value [1] was “guanine, cytosine, hypoxanthine, xanthine, uric acid, and uracil all compete with adenine”.

For `O=c1[nH]c(=O)c2[nH]c(=O)[nH]c2[nH]1` [uric acid], the “% adenine uptake at 1 mM competitor” value [1] was “guanine, cytosine, hypoxanthine, xanthine, uric acid, and uracil all compete with adenine”.

For `Nc1nc2[nH]cnc2c(=O)[nH]1` [guanine], the “% adenine uptake at 1 mM competitor” value [1] was “guanine, cytosine, hypoxanthine, xanthine, uric acid, and uracil all compete with adenine”.

B1: PlUacP (P. larvae uric acid permease-like protein) (Paenibacillus larvae subsp. larvae DSM 25430) (protein)
chain: T1 sequence (V9VZQ8 1-434)
Work on B1 yielded a Km [2] of 7.04 ± 0.18 µM.
